Common to all, as to assay: NCI tumour cell line growth inhibition, 48 h
Experiment [1] deals with SK-OV-3 ovarian.
Experiment [2] relates to UACC-62 melanoma.
Experiment [3] relates to KM12 colon.
For experiment [4], the system named is HCC-2998 colon.
For experiment [5], the system named is K-562 leukemia.
Experiment [6] relates to NCI-H226 lung.
Experiment [7] concerns DU-145 prostate.
Experiment [8] deals with MDA-MB-231 breast.
Experiment [9] concerns NCI-H460 lung.
Experiment [10] relates to M14 melanoma.

This is an account of results in PubChem BioAssay (NCI).

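Exposure lasted 48 hours, with cells grown in 96-well plates and compounds tested at five concentrations. GI50: concentration for 50% inhibition of growth. TGI: concentration producing complete growth inhibition.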

Turning to `NC(=O)c1cccc(Nc2nccc(Nc3cccc4[nH]ncc34)n2)c1`, the GI50 in experiment [1] was 8.45 µM; in experiment [2] it was 7.02 µM; in experiment [3], 9.78 µM; in [4], 14.7 µM; in experiment [5], 4.53 µM; in experiment [6], 5.52 µM. Further, the GI50 in [7] was 9.7 µM; in [8], 8.02 µM; in [9] it was 9.05 µM; in experiment [10], 9.59 µM. In addition, the TGI was more than 25 µM in [1]; more than 25 µM in experiment [2]; more than 25 µM in experiment [3]; more than 25 µM in experiment [4]; more than 25 µM in experiment [5]; more than 20.1 µM in experiment [6]. Further, the TGI in [7], in experiment [8], in [9] and in experiment [10] was more than 25 µM each time.

On to `COc1ccccc1CNCCCN1C(=O)c2ccc3c4c(ccc(c24)C1=O)C(=O)N(CCCCNCCCN)C3=O`, for which the GI50 in experiment [1] is 3.74 µM; in experiment [2] it was 1.01 µM; in [3], 2.53 µM; in [4], 1.12 µM; in experiment [5], 1.9 µM; in [6], 2.26 µM. The GI50 in experiment [7] was 1.59 µM; in experiment [8], 2.64 µM; in [9], 0.825 µM; in experiment [10], 1.89 µM. Also, the TGI in experiment [1] turned out to be 15.9 µM; in experiment [2], 2.68 µM; in experiment [3], 9.7 µM; in [4], 3.03 µM; in [5] it was 4.87 µM; in [6], 9.24 µM. The TGI in experiment [7] worked out at 2.99 µM; in experiment [8], 13.2 µM; in [9], 2.82 µM; in experiment [10], 3.5 µM.

On to `COc1ccc2c(c1)CC[C@H](O)/C2=C/c1cc(OC)c(OC)c(OC)c1`, for which the GI50 in experiment [1] was 0.138 µM; in experiment [2] it was 0.0403 µM; in experiment [3] it was 0.093 µM; in experiment [4], 0.16 µM; in experiment [5] it was 0.0492 µM; in [6], 2.95 µM. The GI50 in [7] was 0.156 µM; in experiment [8], 0.604 µM; in experiment [9], 0.107 µM; in experiment [10], 0.101 µM. The TGI in experiment [1], in experiment [2], in experiment [3], in [4], in experiment [5] and in [6] was more than 100 µM each time. For the same molecule, the TGI in [7] was more than 100 µM; in [8], more than 100 µM; in [9], more than 36.8 µM; in [10] it was more than 100 µM.

On to `O=Cc1cccc2c1Oc1c(cccc1C(=O)O)S2`, for which the TGI is more than 100 µM in [1]; more than 100 µM in [2]; 44.3 µM in experiment [3]; more than 100 µM in experiment [4]; more than 100 µM in experiment [6]; more than 100 µM in [7]. In addition, the TGI in [8], in experiment [9] and in experiment [10] was more than 100 µM in each case.

Take `COC(=O)Cc1ccc(Oc2cnc3cc(F)c(F)cc3n2)cc1`: the GI50 in [1] is more than 100 µM; in experiment [2], more than 100 µM; in experiment [3] it was more than 100 µM; in experiment [5], 31.1 µM; in [6] it was 52.9 µM; in experiment [7] it was more than 100 µM. Moreover, the GI50 in experiment [8] and in experiment [9] was more than 100 µM each time. The TGI is more than 100 µM in experiment [1]; more than 100 µM in experiment [2]; more than 100 µM in [3]; 94.8 µM in experiment [5]; more than 100 µM in experiment [6]; more than 100 µM in [7]. Also, the TGI in experiment [8] and in experiment [9] was more than 100 µM each time.

`COc1ccc2nc3cc([N+](=O)[O-])ccc3c(NCCCN(C)C)c2c1`: the GI50 in [1] was 0.231 µM; in experiment [2], 0.384 µM; in [5] it was 0.0361 µM; in experiment [6], 0.251 µM; in [7] it was 0.175 µM; in [8], 0.394 µM. The results for the GI50 in [9] and in [10] were 0.0409 µM and 0.176 µM, respectively. The TGI came to 3.13 µM in experiment [1]; 1.64 µM in experiment [2]; 0.183 µM in experiment [5]; 2.42 µM in experiment [6]; 11.9 µM in [7]; 3.45 µM in experiment [8]. The TGI in [9] stood at 1.5 µM; in experiment [10] it was 0.412 µM.

For `O=c1c(Cl)c(Cl)c(=O)c2sc3cc(Cl)ccc3[nH]c1=2`, the TGI in experiment [1] is more than 100 µM; in [2] it was more than 100 µM; in experiment [3] it was more than 100 µM; in experiment [5], 34.6 µM; in [6], more than 100 µM; in experiment [7] it was more than 100 µM. Besides, the TGI in [8] is 7.71 µM; in experiment [9] it was more than 100 µM; in experiment [10] it was more than 100 µM.

Regarding `CNC(=O)Cc1nc(-c2cccc(NS(=O)(=O)c3c(F)cccc3F)c2F)c(-c2ccnc(Nc3ccccc3)n2)s1`, the GI50 is 0.558 µM in [1]; 14.2 µM in [3]; 7.94 µM in [4]; 1.09 µM in experiment [5]; 8.73 µM in [6]; 12.6 µM in experiment [7]. The GI50 in experiment [8] is 1.04 µM; in experiment [9], 14.8 µM; in experiment [10], 0.0108 µM. Besides, the TGI was 27.9 µM in experiment [1]; more than 50 µM in experiment [3]; 28.1 µM in experiment [4]; more than 50 µM in [5]; more than 50 µM in experiment [6]; more than 50 µM in experiment [7]. Moreover, the TGI in experiment [8] was more than 15.3 µM; in experiment [9], more than 50 µM; in experiment [10], 6.58 µM.

For the molecule `Cc1ccc(S(=O)(=O)NNC(=O)c2cc(C)c(C)cc2N)cc1`, the TGI in [1], in experiment [2], in [3], in [4], in [5] and in experiment [6] was more than 100 µM throughout. For the same molecule, the TGI in experiment [7], in experiment [8] and in experiment [9] was more than 100 µM in each case.

For the molecule `CN(Cc1cc(Cl)cc(Cl)c1)CC(C(=O)c1ccccc1)c1ccccc1` (stereo unspecified), the TGI is more than 100 µM in experiment [1]; 14.3 µM in experiment [2]; 17.5 µM in [3]; more than 100 µM in experiment [5]; 22.4 µM in experiment [6]; 20.9 µM in experiment [7]. The TGI is 23.5 µM in [8], more than 100 µM in experiment [9] and 13.5 µM in experiment [10].
